Assay results: PMC9486951, “Tetramate Derivatives by Chemoselective Dieckmann Ring Closure of threo-Phenylserines and Their Antibacterial Activity” (The Journal of Organic Chemistry, 2022)
Values after ≈ are worked out from the molar mass of the structure shown. Where two headings read alike, the source gives them in different places.

Key:
[1] = test system: methicillin-resistant Staphylococcus aureus (MRSA); experiment: MIC determination by broth dilution assay against MRSA; format: cell-based
Experimental: (§1) With access to these derivatives routinely available, an assessment of their antibacterial activity was made by measuring minimum inhibitory concentration (MIC) values (Table S6) against two example organisms, methicillin-resistant Staphylococcus aureus (MRSA) and E. coli. […] By contrast, a more polar substituent at the C7-position (pyran 12t) compromised the antibacterial activity (125 μg/mL). […] Compound 13b had the same activity as 12g at 1.00 μg/mL. Overall, increasing lipophilicity corresponded to higher potency against MRSA. […]
(§2) Screening of compounds were performed by Oxford Antibiotic Group, Austria. For MIC determination by broth dilution assay, the samples were tested in a primary 96 well plates screening assay, in duplicate. The compounds were diluted in Mueller Hinton Broth (MHB) for bacterial screening to a stock solution of 1000 µg/mL, serial diluted and overlaid with a microbe solution in a concentration of 10^4 CFU/ml. […]

E. coli = experiment: MIC determination by broth dilution assay against E. coli; format: cell-based
Experimental: as §1, §2

[2] = Staphylococcus aureus, MRSA, Table S5, against S. aureus, read-out: MIC
[3] = Staphylococcus aureus, MRSA, broth dilution, read-out: MIC against MRSA

Structure (SMILES): CC(C)(C)[C@@H]1O[C@H](c2ccccc2)[C@H]2C(O)=C(C(=O)Nc3ccc(C(F)(F)F)cc3Cl)C(=O)N21 (racemic) [12i]
- antibacterial activity against MRSA (in words) [1]: high activities
- MIC [1, 2]: 0.49 µg/mL (≈ 0.99 µM)
- MIC ([1]; Table S6): 0.49 µg/mL (≈ 0.99 µM)

Structure (SMILES): CC(C)(C)[C@@H]1O[C@H](c2ccccc2)[C@H]2C(O)=C(C(=O)Nc3ccc(Cl)cc3C(F)(F)F)C(=O)N21 (racemic) [12j]
- MIC [1, 2]: 3.9 µg/mL (≈ 7.88 µM)
- MIC ([1]; Table S6): 3.9 µg/mL (≈ 7.88 µM)

Structure (SMILES): Cc1ccc(NC(=O)C2=C(O)[C@@H]3[C@@H](c4ccccc4)O[C@@H](C(C)(C)C)N3C2=O)c(C)c1 (racemic) [12k]
- MIC [1, 2]: 3.9 µg/mL (≈ 9.27 µM)
- MIC ([1]; Table S6): 3.9 µg/mL (≈ 9.27 µM)

Structure (SMILES): Cc1cc(F)ccc1NC(=O)C1=C(O)[C@@H]2[C@@H](c3ccccc3)O[C@@H](C(C)(C)C)N2C1=O (racemic) [12l]
- antibacterial activity against MRSA (in words) [1]: high activities
- MIC [1, 2]: 1 µg/mL (≈ 2.36 µM)
- MIC ([1]; Table S6): 1.0 µg/mL (≈ 2.36 µM)

Structure (SMILES): CCCCCCc1ccc(NC(=O)C2=C(O)[C@@H]3[C@@H](c4ccccc4)O[C@@H](C(C)(C)C)N3C2=O)cc1 (racemic) [12m]
- MIC [1, 2]: 0.49 µg/mL (≈ 1.03 µM)
- MIC [1, 3]: 0.49 µg/mL (≈ 1.03 µM)
- MIC ([1]; Table S6): 0.49 µg/mL (≈ 1.03 µM)

Structure (SMILES): CC(C)(C)[C@@H]1O[C@H](c2ccccc2)[C@H]2C(O)=C(C(=O)NC3CCCCC3)C(=O)N21 (racemic) [12n]
- MIC [1, 2]: 1 µg/mL (≈ 2.51 µM)
- MIC [1, 3]: 1 µg/mL (≈ 2.51 µM)
- MIC ([1]; Table S6): 1.0 µg/mL (≈ 2.51 µM)

Structure (SMILES): CC(C)(C)[C@@H]1O[C@H](c2ccccc2)[C@H]2C(O)=C(C(=O)NC3CCCCCC3)C(=O)N21 (racemic) [12o]
- MIC [1, 2]: 1 µg/mL (≈ 2.42 µM)
- MIC [1, 3]: 1 µg/mL (≈ 2.42 µM)
- MIC ([1]; Table S6): 1.0 µg/mL (≈ 2.42 µM)

Structure (SMILES): CCCCCCNC(=O)C1=C(O)[C@@H]2[C@@H](c3ccccc3)O[C@@H](C(C)(C)C)N2C1=O (racemic) [12p]
- MIC [1, 2]: 3.9 µg/mL (≈ 9.74 µM)
- MIC [1, 3]: 3.9 µg/mL (≈ 9.74 µM)
- MIC ([1]; Table S6): 3.9 µg/mL (≈ 9.74 µM)

Structure (SMILES): CCCCCCCCCNC(=O)C1=C(O)[C@@H]2[C@@H](c3ccccc3)O[C@@H](C(C)(C)C)N2C1=O (racemic) [12q]
- MIC [1, 2]: 0.49 µg/mL (≈ 1.11 µM)
- MIC [1, 3]: 0.49 µg/mL (≈ 1.11 µM)
- MIC ([1]; Table S6): 0.49 µg/mL (≈ 1.11 µM)

Structure (SMILES): CCCCCCCCCCCCNC(=O)C1=C(O)[C@@H]2[C@@H](c3ccccc3)O[C@@H](C(C)(C)C)N2C1=O (racemic) [12r]
- MIC [1, 2]: 0.49 µg/mL (≈ 1.01 µM)
- MIC [1, 3]: 0.49 µg/mL (≈ 1.01 µM)
- MIC ([1]; Table S6): 0.49 µg/mL (≈ 1.01 µM)

Structure (SMILES): CC(C)(C)[C@@H]1O[C@H](c2ccccc2)[C@H]2C(O)=C(C(=O)Nc3ccc(C4CCCCC4)cc3)C(=O)N21 (racemic) [12s]
- MIC [1, 2]: 1 µg/mL (≈ 2.11 µM)
- MIC [1, 3]: 1 µg/mL (≈ 2.11 µM)
- MIC ([1]; Table S6): 1.0 µg/mL (≈ 2.11 µM)

Structure (SMILES): CC(C)(C)[C@@H]1O[C@H](c2ccccc2)[C@H]2C(O)=C(C(=O)NC3CCOCC3)C(=O)N21 (racemic) [12t]
- MIC [1, 2]: 125 µg/mL (≈ 312 µM)
- MIC [1, 3]: 125 µg/mL (≈ 312 µM)
- MIC ([1]; Table S6): 125 µg/mL (≈ 312 µM)

Structure (SMILES): CC(C)(C)[C@@H]1O[C@H](c2ccccc2)[C@H]2C(O)=C(C(=O)NCc3ccccc3)C(=O)N21 (racemic) [12u]
- MIC [1, 2]: 15.6 µg/mL (≈ 38.4 µM)
- MIC [1, 3]: 15.6 µg/mL (≈ 38.4 µM)
- MIC ([1]; Table S6): 15.6 µg/mL (≈ 38.4 µM)

Structure (SMILES): CC(C)(C)NC(=O)C1=C(O)[C@@H]2[C@@H](c3ccccc3)O[C@@H](C(C)(C)C)N2C1=O (racemic) [12v]
- antibacterial activity against MRSA (in words) [1]: comparable activity with the hexyl 12p
- MIC [1, 2]: 3.9 µg/mL (≈ 10.5 µM)
- MIC ([1]; Table S6): 3.9 µg/mL (≈ 10.5 µM)

Structure (SMILES): Cc1ccc([C@H]2O[C@@H](C(C)(C)C)N3C(=O)C(C(=O)Nc4ccc(Cl)cc4C)=C(O)[C@H]23)cc1 (racemic) [13b]
- MIC ([1]; Staphylococcus aureus, MRSA, Table S6, read-out: MIC): 1 µg/mL (≈ 2.2 µM)
- MIC [1, 3]: 1 µg/mL (≈ 2.2 µM)
- MIC ([1]; Table S5, against S. aureus): 1.0 µg/mL (≈ 2.2 µM)

Structure (SMILES): CCOC(=O)C1=C(O)[C@@H]2[C@@H](c3ccc(C)cc3)O[C@@H](C(C)(C)C)N2C1=O [10b]
- antibacterial activity against MRSA (in words) [1]: no activity
- antibacterial activity against E. coli (in words) (E. coli): no activity
